Results on six molecules are retold here after patent publication US20260345458A1, “Pharmaceutical, Dermatological or Cosmetic Compounds and Compositions for Reducing Melanin Synthesis, Stimulating Type I Collagen Production, Skin Depigmentation and/or Promoting a Skin Anti-Aging Effect in an Individual or Animal, Uses and Methods” (Chemyunion Ltda, priority 2022, published 2026).

Data set [1] has as its system rats. As to conditions: cited from earlier work.
The subject of data set [2] is melanin synthesis. Conditions: as reported in prior patent documents; cited from earlier work.
For data set [3], the system named is melanin synthesis in human skin fragments. Kind of data set: Inhibition of melanin synthesis in human skin fragments (ex vivo explants, Fontana Masson staining). Type of data set: cell-based. Conditions: 50 ppm; 72 h; ex vivo human skin explants (n=5); vs placebo; **p<0.01 (FIG. 1). An excerpt: FIG. 1: Semi-quantification of melanin pigment levels. Data obtained by recording images of histological sections of human skin fragments previously treated with a formulation without active ingredient (Placebo) and treated with the same formulation containing the peptide SEQ ID No. 1 (Pal-Gln-His-Trp-Val-OH) (at 50 ppm or 100 ppm). **p<0.01 compared to the placebo group.
FIG. 2: Representative images of the effect of peptide SEQ ID No. 1 (Pal-Gln-His-Trp-Val-OH) on melanin synthesis in ex vivo skin fragments-Fontana Masson staining (400× magnification).
Example 1: Evaluation of Inhibition of Melanin Synthesis in Human Skin Fragments
Skin explants (n=5), obtained from a surgical procedure performed by an ophthalmological plastic surgery clinic, were treated for 72 h with a formulation containing the peptide SEQ ID No. 1 (Pal-Gln-His-Trp-Val-OH), (at 50 ppm or 100 ppm) and with the same formulation without the addition of the peptide (placebo).
After incubation with the test products as described above, the skin fragments were fixed in 4% paraformaldehyde (pH 7.4) for 24 hours. […]
Subsequently, the slides were analyzed and recorded using an optical microscope coupled to a camera.

Data set [4] concerns type I collagen in human skin fragments. Kind of data set: Collagen synthesis stimulation in human skin fragments (ex vivo explants, immunofluorescence). Type of data set: cell-based. As to conditions: 72 h, ex vivo human skin explants (n=5), vs placebo, **p<0.01 (FIG. 3). An excerpt:
FIG. 3. Semi-quantification of type I collagen levels. Data obtained by recording images of histological sections of human skin fragments previously treated with a formulation without active ingredient (Placebo) and treated with the same formulation containing the peptide SEQ ID No. 1 (Pal-Gln-His-Trp-Val-OH) (at 50 ppm or 100 ppm). **p<0.01 compared to the placebo group.
FIG. 4. Representative images of the effect of peptide SEQ ID No. 1 (Pal-Gln-His-Trp-Val-OH) on the synthesis of type I collagen in ex vivo skin fragments-immunofluorescence (400× magnification).
Example 2: Evaluation of Collagen Synthesis Stimulation in Human Skin Fragments
Skin explants (n=5) obtained from a surgical procedure performed by the ophthalmologic plastic surgery clinic were treated for 72 h with a formulation containing the peptide SEQ ID No. 1 (Pal-Gln-His-Trp-Val-OH) (at 50 ppm or 100 ppm) and with the same formulation without the addition of the peptide (placebo). After incubation with the test products as described above, the skin fragments were fixed in 4% paraformaldehyde (pH 7.4) for 24 h. […] The skin sections were then subjected to the specific labeling process for type I collagen for subsequent immunofluorescence analysis; the records were obtained using a fluorescence optical microscope coupled to a photographic camera.

In data set [5] the test system is skin. As to conditions: cited from earlier work; for ochronosis: skin becomes more pigmented than at the beginning of treatment.

Where a SMILES comes first, the peptide text is derived from it. The star is where a group is joined. Palmitoyl = CCCCCCCCCCCCCCCC(=O)*

For `O=c1cc(CO)occ1O` [Kojic acid], in data set [1], the promotion of cancer entry was “has been found to promote the development of liver and thyroid cancer in rats”.

As for `CCCCCCCCCCCCCCCC(=O)N[C@@H](Cc1ccc(O)cc1)C(=O)N[C@@H](Cc1ccc(O)cc1)C(=O)N[C@@H](CCSC)C(N)=O` [Pal-TyrTyrMet-NH2] (Palmitoyl-Tyr-Tyr-Met-NH2), the “activity on melanin synthesis / skin lightening” value in data set [2] is “stimulating melanin synthesis”.

For the molecule `CCCCCCCCCCCCCCCC(=O)N[C@@H](CCC(N)=O)C(=O)N[C@@H](Cc1c[nH]cn1)C(=O)N[C@@H](Cc1c[nH]c2ccccc12)C(=O)N[C@H](C(=O)O)C(C)C` [SEQ ID No. 1, Pal-Gln-His-Trp-Val-OH] (Palmitoyl-QHWV-OH), the “reduction of melanin production compared to the placebo group” value in data set [3] worked out at 66%. In addition, in data set [4] (50 ppm), the “stimulation of collagen I production compared to the placebo group” value was 63%. The “increase in protein (type I collagen) synthesis compared to the placebo group” value in data set [4] (100 ppm) came to 71%.

For the molecule `OC[C@H]1O[C@@H](Oc2ccc(O)cc2)[C@H](O)[C@@H](O)[C@@H]1O` [arbutin], the ochronosis result in data set [5] is reported as “can cause ochronosis”.

On to `Oc1ccc(O)cc1` [hydroquinone], for which the ochronosis entry in data set [5] is “can cause ochronosis”. In addition, in data set [5] (topical application, studies suggest), the “effect on extracellular matrix fibers, adrenal glands, thyroid physiology and skin firmness” value is “can disrupt the fibers of the extracellular matrix (especially collagen and elastin), leading to changes in the adrenal glands and thyroid physiology, as well as loss of skin firmness”.

In the case of Caffeoyl-GlnHisGlyVal-OH, in data set [2], the “activity on melanin synthesis / skin lightening” value is listed as “has skin lightening activity due to its anti-inflammatory activity”.
